The record followed here is patent US20250304596A1, “PYRAZINE DERIVATIVES AND USES THEREOF” (FOGHORN THERAPEUTICS INC., priority 2022, published 2025).

One assay has as its target T1, HiBit-BRM fusion protein (Homo sapiens, UniProt P51531).
T1 construct: expressed in transfected cells
The assay can be described thus: HiBiT-BRM cell-based degradation assay (Nano-Glo HiBiT Lytic Detection, 24 h). As to conditions: stable HeLa cell line expressing HiBiT-BRM; for DC50: read-out: BRM HiBit Degradation IC50. Here is the method:
(§1) Procedure: A stable HeLa cell line expressing HiBiT-BRM was generated. On day 0, 5000 cells were seeded in 40 μL of media into each well of 384-well cell culture plates. On day 1, cells were treated with 120 nL DMSO or 120 nL of 3-fold serially DMSO-diluted compounds (10 points in duplicate with 30 μM as final top dose). Subsequently plates were incubated for 24 h in a standard tissue culture incubator and equilibrated at room temperature for 15 minutes. Nano-Glo HiBiT Lytic Detection System (Promega N3050) reagent was freshly prepared and 20 ul was added to each well. Upon addition of this LgBit-containing reagent, the HiBiT and LgBiT proteins associate to form the luminescent NanoBiT Iuciferase. The plates were shaken for 10 minutes at room temperature and the bioluminescence read using an EnVision plate reader (PerkinElmer).
(§2) The degradation % was calculated using the following formula: % degradation=100%-100%×(LumSample−LumLC)/(LumHC−LumLC). DMSO treated cells are employed as High Control (HC) and 2 μM of a known BRM/BRG1 degrader standard treated cells are employed as Low Control (LC).
Background: The HiBiT peptide binds its large partner to form an active luciferase.

Assay [1] deals with T2, HiBit-BRG1 fusion protein (Homo sapiens, UniProt P51532).
T2 construct: expressed in transfected cells
T2 sequence (P51532 whole entry, the tested form may be a part): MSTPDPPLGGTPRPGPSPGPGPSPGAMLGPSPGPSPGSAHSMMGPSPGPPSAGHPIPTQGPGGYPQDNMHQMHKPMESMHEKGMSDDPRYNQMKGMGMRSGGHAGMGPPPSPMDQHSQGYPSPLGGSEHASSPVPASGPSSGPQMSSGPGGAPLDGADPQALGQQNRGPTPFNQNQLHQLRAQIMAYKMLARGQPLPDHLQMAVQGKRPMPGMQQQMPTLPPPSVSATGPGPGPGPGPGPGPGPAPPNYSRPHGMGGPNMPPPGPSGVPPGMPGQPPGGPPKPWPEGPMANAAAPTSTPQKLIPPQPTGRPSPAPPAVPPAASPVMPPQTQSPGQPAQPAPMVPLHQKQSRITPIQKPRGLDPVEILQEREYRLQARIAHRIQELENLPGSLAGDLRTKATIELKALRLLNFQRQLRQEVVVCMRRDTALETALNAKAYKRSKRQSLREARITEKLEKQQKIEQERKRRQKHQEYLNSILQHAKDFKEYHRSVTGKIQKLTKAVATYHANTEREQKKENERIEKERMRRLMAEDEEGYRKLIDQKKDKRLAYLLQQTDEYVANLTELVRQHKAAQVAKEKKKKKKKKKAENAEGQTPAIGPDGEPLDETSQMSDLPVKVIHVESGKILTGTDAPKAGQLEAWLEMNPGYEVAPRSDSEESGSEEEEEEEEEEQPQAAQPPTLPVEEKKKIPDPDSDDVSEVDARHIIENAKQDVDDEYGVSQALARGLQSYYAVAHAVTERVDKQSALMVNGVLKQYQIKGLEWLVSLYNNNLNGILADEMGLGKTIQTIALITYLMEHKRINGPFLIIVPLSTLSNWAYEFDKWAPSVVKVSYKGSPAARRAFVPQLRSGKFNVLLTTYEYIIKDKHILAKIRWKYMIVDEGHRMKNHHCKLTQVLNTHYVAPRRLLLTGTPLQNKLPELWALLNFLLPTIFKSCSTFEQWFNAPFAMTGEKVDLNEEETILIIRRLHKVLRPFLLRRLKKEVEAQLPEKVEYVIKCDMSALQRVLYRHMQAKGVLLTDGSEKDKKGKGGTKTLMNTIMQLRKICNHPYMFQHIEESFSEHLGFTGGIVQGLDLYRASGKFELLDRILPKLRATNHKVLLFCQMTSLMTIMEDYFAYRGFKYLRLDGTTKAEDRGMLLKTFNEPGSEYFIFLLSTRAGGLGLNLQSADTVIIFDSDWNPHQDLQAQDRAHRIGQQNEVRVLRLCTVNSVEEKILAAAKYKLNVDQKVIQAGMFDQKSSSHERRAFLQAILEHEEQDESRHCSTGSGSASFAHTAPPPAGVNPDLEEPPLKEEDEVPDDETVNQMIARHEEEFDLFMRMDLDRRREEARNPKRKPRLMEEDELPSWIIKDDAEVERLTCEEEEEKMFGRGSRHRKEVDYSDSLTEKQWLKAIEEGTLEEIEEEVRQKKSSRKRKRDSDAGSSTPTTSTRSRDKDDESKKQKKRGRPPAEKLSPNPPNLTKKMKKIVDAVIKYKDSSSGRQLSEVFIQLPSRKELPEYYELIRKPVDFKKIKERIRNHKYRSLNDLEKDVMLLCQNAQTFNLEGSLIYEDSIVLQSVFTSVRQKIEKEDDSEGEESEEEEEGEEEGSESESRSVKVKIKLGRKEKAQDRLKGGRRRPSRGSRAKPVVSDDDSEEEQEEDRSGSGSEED
As to the kind of experiment: HiBiT-BRG1 cell-based degradation assay (Nano-Glo HiBiT Lytic Detection, 24 h). As to conditions: stable HeLa cell line expressing HiBit-BRG1 and LgBit; for Dmax: read-out: BRG1 HiBit Degradation Maximum (%); for DC50: read-out: BRMG1 HiBit Degradation IC50. Here is the method: as §1
For measurement of BRG1 degradation, a stable HeLa cell line expressing HiBit-BRG1 and LgBit was generated. The same protocol as above was then followed.
as §2

T1 sequence (P51531 whole entry, the tested form may be a part): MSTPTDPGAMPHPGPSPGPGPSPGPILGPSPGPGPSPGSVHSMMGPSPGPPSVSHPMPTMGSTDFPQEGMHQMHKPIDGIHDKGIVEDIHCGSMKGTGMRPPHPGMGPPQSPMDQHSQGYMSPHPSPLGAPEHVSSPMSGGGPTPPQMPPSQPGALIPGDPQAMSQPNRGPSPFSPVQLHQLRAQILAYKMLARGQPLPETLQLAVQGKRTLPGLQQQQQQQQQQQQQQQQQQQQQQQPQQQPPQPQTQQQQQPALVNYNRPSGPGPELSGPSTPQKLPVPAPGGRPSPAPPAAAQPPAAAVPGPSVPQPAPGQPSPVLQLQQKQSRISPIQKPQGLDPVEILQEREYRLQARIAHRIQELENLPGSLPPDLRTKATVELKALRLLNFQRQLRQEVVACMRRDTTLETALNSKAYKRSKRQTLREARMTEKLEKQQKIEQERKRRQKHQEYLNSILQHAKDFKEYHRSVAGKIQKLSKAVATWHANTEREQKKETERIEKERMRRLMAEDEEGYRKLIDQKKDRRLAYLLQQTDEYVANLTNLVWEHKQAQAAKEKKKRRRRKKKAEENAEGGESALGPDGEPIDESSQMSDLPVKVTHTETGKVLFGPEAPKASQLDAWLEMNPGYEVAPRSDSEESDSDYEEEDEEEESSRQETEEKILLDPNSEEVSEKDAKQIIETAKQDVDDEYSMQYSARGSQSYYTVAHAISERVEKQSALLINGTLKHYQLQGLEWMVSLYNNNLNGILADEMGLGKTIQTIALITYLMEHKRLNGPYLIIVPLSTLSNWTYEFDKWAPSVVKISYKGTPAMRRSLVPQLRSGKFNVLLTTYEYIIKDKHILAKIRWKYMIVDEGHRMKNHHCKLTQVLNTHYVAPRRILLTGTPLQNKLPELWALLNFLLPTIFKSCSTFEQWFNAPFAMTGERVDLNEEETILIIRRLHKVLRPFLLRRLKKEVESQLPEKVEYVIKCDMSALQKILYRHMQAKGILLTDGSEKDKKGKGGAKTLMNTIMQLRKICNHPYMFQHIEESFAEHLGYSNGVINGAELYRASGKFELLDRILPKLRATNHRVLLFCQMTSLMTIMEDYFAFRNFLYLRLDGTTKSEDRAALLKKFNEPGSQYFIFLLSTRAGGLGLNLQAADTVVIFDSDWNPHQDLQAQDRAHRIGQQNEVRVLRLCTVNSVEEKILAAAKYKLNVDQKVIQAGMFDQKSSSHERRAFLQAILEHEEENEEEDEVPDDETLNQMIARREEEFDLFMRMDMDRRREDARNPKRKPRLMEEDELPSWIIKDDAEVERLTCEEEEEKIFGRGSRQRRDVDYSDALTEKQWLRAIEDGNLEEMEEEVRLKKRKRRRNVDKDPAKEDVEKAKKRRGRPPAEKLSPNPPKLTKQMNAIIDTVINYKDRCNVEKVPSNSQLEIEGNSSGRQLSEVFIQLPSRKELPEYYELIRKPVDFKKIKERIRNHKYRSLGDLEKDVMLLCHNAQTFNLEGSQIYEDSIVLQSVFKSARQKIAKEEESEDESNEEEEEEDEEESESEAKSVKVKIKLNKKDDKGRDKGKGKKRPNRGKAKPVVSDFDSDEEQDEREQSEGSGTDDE

In the case of `Cc1nc(N2CC[C@@H](c3sc4nnc(-c5ccccc5O)cc4c3C)C2)ccc1-c1cc([C@H](C(=O)N2C[C@H](O)C[C@H]2C(=O)N[C@@H](C)c2ccc(-c3scnc3C)cc2)C(C)C)on1` [Compound 94, (2S,4R)-4-hydroxy-1-((R)-2-(3-(6-((R)-3-(3-(2-hydroxyphenyl)-5-methylthieno[2,3-c]pyridazin-6-yl)pyrrolidin-1-yl)-2-methylpyridin-3-yl)isoxazol-5-yl)-3-methylbutanoyl)-N-((S)-1-(4-(4-methylthiazol-5-yl)phenyl)ethyl)pyrrolidine-2-carboxamide], on HiBit-BRM fusion protein, the “BRM HiBit Degradation Maximum (%)” value is reported as “A (“A” indicates maximum degradation ≥75%)” and the DC50 was over 10 nM. In assay [1], the Dmax was under 50%.

On to `Cc1nc(N2CCC(c3sc4nnc(-c5ccccc5O)cc4c3C)CC2)ncc1-c1cc([C@H](C(=O)N2C[C@H](O)C[C@H]2C(=O)N[C@@H](C)c2ccc(-c3scnc3C)cc2)C(C)C)on1` [Compound 93, (2S,4R)-4-hydroxy-1-((R)-2-(3-(2-(4-(3-(2-hydroxyphenyl)-5-methylthieno[2,3-c]pyridazin-6-yl)piperidin-1-yl)-4-methylpyrimidin-5-yl)isoxazol-5-yl)-3-methylbutanoyl)-N-((S)-1-(4-(4-methylthiazol-5-yl)phenyl)ethyl)pyrrolidine-2-carboxamide], for which, at HiBit-BRM fusion protein, the “BRM HiBit Degradation Maximum (%)” value is reported as “A (“A” indicates maximum degradation ≥75%)” and the DC50 is under 10 nM. For the same molecule, the Dmax in assay [1] was over 50%.

As for `Cc1ncsc1-c1ccc([C@H](C)NC(=O)[C@@H]2C[C@@H](O)CN2C(=O)[C@@H](c2cc(Oc3ccnc(N4CCC(c5sc6nnc(-c7ccccc7O)cc6c5C)CC4)n3)no2)C(C)C)cc1` (single isomer, unassigned) [Compound 62], at HiBit-BRM fusion protein, the “BRM HiBit Degradation Maximum (%)” value was “C (“C” indicates maximum degradation <50%)” and the DC50 is over 1000 nM. In assay [1], the Dmax was under 50% and the DC50 is over 1000 nM.

For `Cc1ncsc1-c1ccc([C@H](C)NC(=O)[C@@H]2C[C@@H](O)CN2C(=O)[C@@H](c2cc(-c3cnc(N4CC[C@H](c5sc6nnc(-c7ccccc7O)cc6c5C5CC5)C4)nc3)no2)C(C)C)cc1` [Compound 76, (2S,4R)-1-((R)-2-(3-(2-((S)-3-(5-cyclopropyl-3-(2-hydroxyphenyl)thieno[2,3-c]pyridazin-6-yl)pyrrolidin-1-yl)pyrimidin-5-yl)isoxazol-5-yl)-3-methylbutanoyl)-4-hydroxy-N-((S)-1-(4-(4-methylthiazol-5-yl)phenyl)ethyl)pyrrolidine-2-carboxamide], at HiBit-BRM fusion protein, the “BRM HiBit Degradation Maximum (%)” value is “A (“A” indicates maximum degradation ≥75%)” and the DC50 was under 10 nM. For the same molecule, the Dmax in assay [1] was under 50%.

Regarding `Cc1ncsc1-c1ccc([C@H](C)NC(=O)[C@@H]2C[C@@H](O)CN2C(=O)[C@@H](c2cc(N3CC4(C3)CN(c3sc5nnc(-c6ccccc6O)cc5c3C)C4)no2)C(C)C)cc1` [Compound 79, (2S,4R)-4-hydroxy-1-((R)-2-(3-(6-(3-(2-hydroxyphenyl)-5-methylthieno[2,3-c]pyridazin-6-yl)-2,6-diazaspiro[3.3]heptan-2-yl)isoxazol-5-yl)-3-methylbutanoyl)-N-((S)-1-(4-(4-methylthiazol-5-yl)phenyl)ethyl)pyrrolidine-2-carboxamide], at HiBit-BRM fusion protein, the “BRM HiBit Degradation Maximum (%)” value was “A (“A” indicates maximum degradation ≥75%)” and the DC50 is under 10 nM. Besides, the Dmax in assay [1] was over 50%.

Turning to `Cc1ncsc1-c1ccc([C@H](C)NC(=O)[C@@H]2C[C@@H](O)CN2C(=O)[C@@H](c2cc(-c3ccnc(N4CC[C@@H](c5cc6nnc(-c7ccccc7O)cc6s5)C4)n3)no2)C(C)C)cc1` [Compound 83, (2S,4R)-4-hydroxy-1-((R)-2-(3-(2-((R)-3-(3-(2-hydroxyphenyl)thieno[3,2-c]pyridazin-6-yl)pyrrolidin-1-yl)pyrimidin-4-yl)isoxazol-5-yl)-3-methylbutanoyl)-N-((S)-1-(4-(4-methylthiazol-5-yl)phenyl)ethyl)pyrrolidine-2-carboxamide], on HiBit-BRM fusion protein, the “BRM HiBit Degradation Maximum (%)” value is listed as “A (“A” indicates maximum degradation ≥75%)” and the DC50 was over 10 nM. In addition, in assay [1], the Dmax is under 50%.

`Cc1ncsc1-c1ccc([C@H](C)NC(=O)[C@@H]2C[C@@H](O)CN2C(=O)[C@@H](c2cc(N3CC4(CC(c5cc6nnc(-c7ccccc7O)cc6s5)C4)C3)no2)C(C)C)cc1` [Compound 69, (2S,4R)-4-hydroxy-1-((R)-2-(3-(6-(3-(2-hydroxyphenyl)thieno[3,2-c]pyridazin-6-yl)-2-azaspiro[3.3]heptan-2-yl)isoxazol-5-yl)-3-methylbutanoyl)-N-((S)-1-(4-(4-methylthiazol-5-yl)phenyl)ethyl)pyrrolidine-2-carboxamide]: on HiBit-BRM fusion protein, the “BRM HiBit Degradation Maximum (%)” value is “A (“A” indicates maximum degradation ≥75%)” and the DC50 is under 10 nM. In assay [1], the Dmax is over 75% and the DC50 is under 10 nM.

As to `Cc1ncsc1-c1ccc([C@H](C)NC(=O)[C@@H]2C[C@@H](O)CN2C(=O)[C@@H](c2cc(N3CC4(C3)CN(c3cc5cc(-c6ccccc6O)nnc5s3)C4)no2)C(C)C)cc1` [Compound 68, (2S,4R)-4-hydroxy-1-((R)-2-(3-(6-(3-(2-hydroxyphenyl)thieno[2,3-c]pyridazin-6-yl)-2,6-diazaspiro[3.3]heptan-2-yl)isoxazol-5-yl)-3-methylbutanoyl)-N-((S)-1-(4-(4-methylthiazol-5-yl)phenyl)ethyl)pyrrolidine-2-carboxamide], on HiBit-BRM fusion protein, the “BRM HiBit Degradation Maximum (%)” value is recorded as “A (“A” indicates maximum degradation ≥75%)” and the DC50 is under 10 nM. Moreover, the Dmax in assay [1] was under 50%.

Turning to `Cc1ncsc1-c1ccc([C@H](C)NC(=O)[C@@H]2C[C@@H](O)CN2C(=O)[C@@H](c2cc(-c3cnc(N4CC[C@H](c5cc6cc(-c7ccccc7O)nnc6s5)C4)nc3)no2)C(C)C)cc1` [Compound 6, (2S,4R)-4-hydroxy-1-((R)-2-(3-(2-((S)-3-(3-(2-hydroxyphenyl)thieno[2,3-c]pyridazin-6-yl)pyrrolidin-1-yl)pyrimidin-5-yl)isoxazol-5-yl)-3-methylbutanoyl)-N-((S)-1-(4-(4-methylthiazol-5-yl)phenyl)ethyl)pyrrolidine-2-carboxamide], at HiBit-BRM fusion protein, the “BRM HiBit Degradation Maximum (%)” value is given as “A (“A” indicates maximum degradation ≥75%)” and the DC50 was under 10 nM. In addition, in assay [1], the Dmax was under 50% and the DC50 is over 1000 nM.

On to `Cc1ncsc1-c1ccc([C@H](C)NC(=O)[C@@H]2C[C@@H](O)CN2C(=O)[C@@H](c2cc(-c3ccc(N4CC(c5cc6cc(-c7ccccc7O)nnc6s5)C4)nn3)no2)C(C)C)cc1` [Compound 24, (2S,4R)-4-hydroxy-1-((R)-2-(3-(6-(3-(3-(2-hydroxyphenyl)thieno[2,3-c]pyridazin-6-yl)azetidin-1-yl)pyridazin-3-yl)isoxazol-5-yl)-3-methylbutanoyl)-N-((S)-1-(4-(4-methylthiazol-5-yl)phenyl)ethyl)pyrrolidine-2-carboxamide], for which, on HiBit-BRM fusion protein, the “BRM HiBit Degradation Maximum (%)” value was “A (“A” indicates maximum degradation ≥75%)” and the DC50 was over 10 nM. In assay [1], the Dmax is over 50% and the DC50 was over 100 nM.
